The source of these data is US11591323B2, “Muscarinic agonists as non-steroidal and non-opioid analgesics and methods of use thereof” (Barry University, priority 2019, dated 2023).

Design in all cases: host or cells: CHO cells, stably transfected
The target of assay [1] is T1, M5 muscarinic receptor (Homo sapiens, UniProt P08912).
T1 sequence (P08912 1-532): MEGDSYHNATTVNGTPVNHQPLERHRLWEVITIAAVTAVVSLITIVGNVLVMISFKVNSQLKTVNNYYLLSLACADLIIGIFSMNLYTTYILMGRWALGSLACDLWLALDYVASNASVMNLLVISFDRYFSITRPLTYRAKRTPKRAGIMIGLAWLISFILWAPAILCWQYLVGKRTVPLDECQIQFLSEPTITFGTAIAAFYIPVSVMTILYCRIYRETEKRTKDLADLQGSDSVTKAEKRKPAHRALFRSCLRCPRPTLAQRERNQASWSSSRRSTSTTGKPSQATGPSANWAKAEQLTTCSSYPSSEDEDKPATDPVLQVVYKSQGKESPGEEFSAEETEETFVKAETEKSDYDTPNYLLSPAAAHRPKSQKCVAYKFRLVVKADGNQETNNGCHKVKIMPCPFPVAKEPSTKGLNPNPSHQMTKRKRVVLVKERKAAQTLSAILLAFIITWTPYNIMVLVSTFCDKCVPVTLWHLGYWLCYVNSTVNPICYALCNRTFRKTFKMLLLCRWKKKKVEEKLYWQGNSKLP
Description: [3H]NMS competition binding, M5 CHO membranes. As to conditions: competition with 1 nM [3H]NMS; read-out: Inhibition constants (Ki) as negative logarithms, M5 (converted).

Assay [2] addresses T2, M1 muscarinic receptor (Homo sapiens, UniProt P11229).
T2 sequence (P11229 1-460): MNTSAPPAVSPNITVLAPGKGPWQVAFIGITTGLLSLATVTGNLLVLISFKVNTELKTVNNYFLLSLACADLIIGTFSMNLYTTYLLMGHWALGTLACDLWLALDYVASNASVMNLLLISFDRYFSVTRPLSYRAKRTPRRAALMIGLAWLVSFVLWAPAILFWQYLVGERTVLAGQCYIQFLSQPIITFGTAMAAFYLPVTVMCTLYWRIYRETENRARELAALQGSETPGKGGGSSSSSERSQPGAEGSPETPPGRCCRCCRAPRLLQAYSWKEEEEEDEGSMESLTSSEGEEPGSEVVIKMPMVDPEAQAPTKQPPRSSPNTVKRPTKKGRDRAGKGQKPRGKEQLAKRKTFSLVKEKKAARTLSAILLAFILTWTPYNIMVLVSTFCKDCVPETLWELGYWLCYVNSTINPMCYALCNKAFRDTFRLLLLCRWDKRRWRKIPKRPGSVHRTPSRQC
Description: [3H]NMS competition binding, M1 CHO membranes. As to conditions: competition with 1 nM [3H]NMS; read-out: Inhibition constants (Ki) as negative logarithms, M1 (converted).

The target of assay [3] is T2, M1 muscarinic receptor. Description: accumulation of inositol phosphates IPX, M1 CHO cells (M1Gq). Format: cell-based. Conditions: M1 (↑IPX), preferential response, relative to carbachol; Tables 2, 3, 7.
The target in assay [4] is T3, M3 muscarinic receptor (Homo sapiens, UniProt P20309). Put plainly: [3H]NMS competition binding, M3 CHO membranes. Conditions: competition with 1 nM [3H]NMS; read-out: Inhibition constants (Ki) as negative logarithms, M3 (converted).
T3 sequence (P20309 whole entry): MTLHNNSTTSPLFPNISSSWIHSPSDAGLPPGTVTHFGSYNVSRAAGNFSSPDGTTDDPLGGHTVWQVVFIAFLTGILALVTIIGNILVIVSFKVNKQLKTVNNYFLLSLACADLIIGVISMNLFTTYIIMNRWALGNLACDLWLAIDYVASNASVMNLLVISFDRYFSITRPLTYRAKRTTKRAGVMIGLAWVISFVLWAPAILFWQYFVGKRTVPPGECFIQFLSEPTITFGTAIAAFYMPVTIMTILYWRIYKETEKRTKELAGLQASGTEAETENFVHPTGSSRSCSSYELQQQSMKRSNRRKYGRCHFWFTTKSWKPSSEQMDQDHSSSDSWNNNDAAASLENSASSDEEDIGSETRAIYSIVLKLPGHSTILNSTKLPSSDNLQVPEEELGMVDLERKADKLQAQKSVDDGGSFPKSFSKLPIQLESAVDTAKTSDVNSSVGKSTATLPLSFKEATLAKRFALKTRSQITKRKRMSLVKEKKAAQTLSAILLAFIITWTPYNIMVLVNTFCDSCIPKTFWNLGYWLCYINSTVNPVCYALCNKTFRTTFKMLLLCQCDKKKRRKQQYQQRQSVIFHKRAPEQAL
In assay [5] the target is T4, M2 muscarinic receptor (Homo sapiens, UniProt P08172).
T4 sequence (P08172 1-466): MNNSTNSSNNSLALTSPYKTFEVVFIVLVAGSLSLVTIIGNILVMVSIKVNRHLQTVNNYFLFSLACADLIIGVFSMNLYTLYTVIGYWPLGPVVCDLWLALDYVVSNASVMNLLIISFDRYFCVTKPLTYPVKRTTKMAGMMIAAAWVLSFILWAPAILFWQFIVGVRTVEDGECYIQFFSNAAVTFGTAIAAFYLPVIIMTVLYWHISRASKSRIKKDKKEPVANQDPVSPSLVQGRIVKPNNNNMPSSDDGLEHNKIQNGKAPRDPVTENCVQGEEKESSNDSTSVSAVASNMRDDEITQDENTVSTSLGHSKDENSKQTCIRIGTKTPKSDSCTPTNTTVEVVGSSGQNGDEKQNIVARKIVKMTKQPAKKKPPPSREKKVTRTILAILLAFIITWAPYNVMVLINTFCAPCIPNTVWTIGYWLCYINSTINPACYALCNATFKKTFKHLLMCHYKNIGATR
Put plainly: inhibition of forskolin-stimulated cAMP, M2 CHO cells (M2Gi). The format is cell-based. Conditions: M2 (↓cAMP), preferential response, relative to carbachol; Tables 2, 3, 7.

Assay [6] addresses T4, M2 muscarinic receptor. Description: [3H]NMS competition binding, M2 CHO membranes. As to conditions: competition with 1 nM [3H]NMS; read-out: Inhibition constants (Ki) as negative logarithms, M2 (converted).
The target in assay [7] is T3, M3 muscarinic receptor. Description: accumulation of IPX, M3 CHO cells (M3Gq). The format is cell-based. Conditions: M3 (↑IPX), preferential response, relative to carbachol; Tables 2, 3, 7.
Assay [8] deals with T5, M4 muscarinic receptor (Homo sapiens, UniProt P08173).
T5 sequence (P08173 1-479): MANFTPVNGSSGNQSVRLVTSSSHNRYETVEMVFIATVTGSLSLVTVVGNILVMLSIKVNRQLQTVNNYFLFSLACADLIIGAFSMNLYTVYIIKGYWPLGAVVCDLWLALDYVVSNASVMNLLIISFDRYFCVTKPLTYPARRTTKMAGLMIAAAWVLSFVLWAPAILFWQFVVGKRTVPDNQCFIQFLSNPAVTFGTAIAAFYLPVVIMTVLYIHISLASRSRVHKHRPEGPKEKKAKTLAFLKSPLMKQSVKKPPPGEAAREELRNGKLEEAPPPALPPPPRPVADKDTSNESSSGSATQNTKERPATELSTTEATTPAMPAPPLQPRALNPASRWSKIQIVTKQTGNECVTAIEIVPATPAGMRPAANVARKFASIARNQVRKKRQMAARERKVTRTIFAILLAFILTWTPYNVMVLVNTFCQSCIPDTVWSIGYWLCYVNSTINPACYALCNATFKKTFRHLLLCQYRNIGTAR
Put plainly: [3H]NMS competition binding, M4 CHO membranes. As to conditions: competition with 1 nM [3H]NMS; read-out: Inhibition constants (Ki) as negative logarithms, M4 (converted).

Assay [9] concerns the target T5, M4 muscarinic receptor. Put plainly: inhibition of forskolin-stimulated cAMP, M4 CHO cells (M4Gi). The format is cell-based. As to conditions: M4 (↓cAMP), preferential response, relative to carbachol; Tables 2, 3, 7.
Assay [10] concerns the target T1, M5 muscarinic receptor. Put plainly: accumulation of IPX, M5 CHO cells (M5Gq). The format is cell-based. Conditions: M5 (↑IPX), preferential response, relative to carbachol; Tables 2, 3, 7.

As for `Cc1csc(CN2CC=CCC2)c1.Cl` [Compound 6E, 1-[(4-methylthiophen-2-yl)methyl]-1,2,3,6-tetrahydropyridin-1-ium chloride], the Ki on M5 muscarinic receptor [1] was 31.6 µM; on M1 muscarinic receptor [2], 31.6 µM; at M3 muscarinic receptor [4], 50.1 µM; at M2 muscarinic receptor [6] it was 12.6 µM; at M4 muscarinic receptor [8] it was 31.6 µM. The RAi on M1 muscarinic receptor [3], at M2 muscarinic receptor [5], at M3 muscarinic receptor [7], on M4 muscarinic receptor [9] and at M5 muscarinic receptor [10] was 0 each time.

Broadly, the Ki is a dissociation constant, usually derived from enzyme kinetics or from competition with a known ligand.
